# Source: ChEMBL document CHEMBL4819081 (Eur J Med Chem, 2021)
# Tests used:
# [1] = test system: NCI-H1299; assay: Antiproliferative activity against human NCI-H1299 cells assessed as reduction in cell viability after 72 hrs by MTT assay; format: functional, cell-based; details: NCI-H1299, 72 h
# [2] = test system: MDA-MB-231; assay: Antiproliferative activity against human MDA-MB-231 cells assessed as reduction in cell viability after 72 hrs by MTT assay; format: functional, cell-based; details: MDA-MB-231, 72 h
# [3] = test system: MDA-MB-453; assay: Antiproliferative activity against human MDA-MB-453 cells assessed as reduction in cell viability after 72 hrs by MTT assay; format: functional, cell-based; details: MDA-MB-453, 72 h
# [4] = test system: MCF7; assay: Antiproliferative activity against human MCF7 cells assessed as reduction in cell viability after 72 hrs by MTT assay; format: functional, cell-based; details: MCF7, 72 h
# [5] = molecular target: T1, Cyclin-dependent kinase 4/cyclin D1 (Homo sapiens) (UniProt P11802+P24385); assay: Inhibition of CDK4/Cyclin D1 (unknown origin) at 200 nM using ATP by mobility shift assay; format: protein-complex assay
# [6] = molecular target: T1, Cyclin-dependent kinase 4/cyclin D1 (Homo sapiens); assay: Inhibition of CDK4/Cyclin D1 (unknown origin) at 20 nM using ATP by mobility shift assay; format: protein-complex assay
# [7] = molecular target: T2, CDK6/cyclin D3 (Homo sapiens) (UniProt P30281+Q00534); assay: Inhibition of CDK6/Cyclin D3 (unknown origin) at 200 nM using ATP by mobility shift assay; format: protein-complex assay
# [8] = molecular target: T2, CDK6/cyclin D3 (Homo sapiens); assay: Inhibition of CDK6/Cyclin D3 (unknown origin) at 20 nM using ATP by mobility shift assay; format: protein-complex assay
SMILES,IC50 [1] [µM],IC50 [2] [µM],IC50 [3] [µM],IC50 [4] [µM],inhibition [5] [%],inhibition [6] [%],inhibition [7] [%],inhibition [8] [%]
CC(=O)c1c(C)c2cnc(Nc3ccc(N4CCN(CC(=O)NCCOCCOCCNCC#N)CC4)cn3)nc2n(C2CCCC2)c1=O,> 20,> 20,> 20,> 20,–,–,–,–
CC(=O)c1c(C)c2cnc(Nc3ccc(N4CCN(CC(=O)NCCOCCNCC#N)CC4)cn3)nc2n(C2CCCC2)c1=O,> 20,> 20,> 20,> 20,–,–,–,–
CC(=O)c1c(C)c2cnc(Nc3ccc(N4CCN(CC(=O)NCCNCC#N)CC4)cn3)nc2n(C2CCCC2)c1=O,> 20,> 20,9.89,> 20,–,–,–,–
CC(=O)c1c(C)c2cnc(Nc3ccc(N4CCN(CC(=O)NCCCCCCNCC#N)CC4)cn3)nc2n(C2CCCC2)c1=O,> 20,> 20,> 20,> 20,–,–,–,–
CC(=O)c1c(C)c2cnc(Nc3ccc(N4CCN(CCC(=O)NCCCCNC(=O)CCl)CC4)cn3)nc2n(C2CCCC2)c1=O,> 20,> 20,7.01,16.6,92,52.1,100,89.2
CC(=O)c1c(C)c2cnc(Nc3ccc(N4CCN(CCC(=O)NCCCCCCNCC#N)CC4)cn3)nc2n(C2CCCC2)c1=O,> 20,> 20,> 20,> 20,–,–,–,–
CC(=O)c1c(C)c2cnc(Nc3ccc(N4CCN(CCC(=O)NCCCCNCC#N)CC4)cn3)nc2n(C2CCCC2)c1=O,8.42,12.5,12.8,> 20,–,–,–,–
CCC(=O)N1CCN(c2ccc(Nc3ncc4c(C)c(C(C)=O)c(=O)n(C5CCCC5)c4n3)nc2)CC1,> 50,142,71.5,25.7,91.4,43,103,69.8
C=CC(=O)N1CCN(c2ccc(Nc3ncc4c(C)c(C(C)=O)c(=O)n(C5CCCC5)c4n3)nc2)CC1,8.5,> 20,6.96,> 20,–,–,–,–
CC(=O)c1c(C)c2cnc(Nc3ccc(N4CCN(CCC(=O)NCCNC(=O)CCl)CC4)cn3)nc2n(C2CCCC2)c1=O,> 20,> 20,> 20,> 20,–,–,–,–
CC(=O)c1c(C)c2cnc(Nc3ccc(N4CCN(CCC(=O)NCCCNC(=O)CCl)CC4)cn3)nc2n(C2CCCC2)c1=O,7.41,9.67,1.96,5.48,93.1,65.5,96.4,79
CC(=O)c1c(C)c2cnc(Nc3ccc(N4CCN(CCC(=O)NCCOCCNC(=O)CCl)CC4)cn3)nc2n(C2CCCC2)c1=O,> 20,> 20,6.11,11.5,94.4,60.5,103,91.2
CC(=O)c1c(C)c2cnc(Nc3ccc(N4CCN(CCC(=O)NCCCCCCNC(=O)CCl)CC4)cn3)nc2n(C2CCCC2)c1=O,> 20,> 20,> 20,> 20,–,–,–,–
CC(=O)c1c(C)c2cnc(Nc3ccc(N4CCN(C(C)=O)CC4)cn3)nc2n(C2CCCC2)c1=O,> 50,> 50,> 50,> 50,87.8,43.2,100,68.5
CC(=O)c1c(C)c2cnc(Nc3ccc(N4CCN(CCC(=O)NCCOCCNCC#N)CC4)cn3)nc2n(C2CCCC2)c1=O,> 20,> 20,> 20,> 20,–,–,–,–
CC(=O)c1c(C)c2cnc(Nc3ccc(N4CCN(CC(=O)NCCCNCC#N)CC4)cn3)nc2n(C2CCCC2)c1=O,19.2,> 20,15.5,> 20,–,–,–,–
CC(=O)c1c(C)c2cnc(Nc3ccc(N4CCN(CC(=O)NCCOCCNC(=O)CCl)CC4)cn3)nc2n(C2CCCC2)c1=O,16.1,> 20,3.55,4.25,92.7,61.4,102,76.7
CC(=O)c1c(C)c2cnc(Nc3ccc(N4CCN(CCC(=O)NCCNCC#N)CC4)cn3)nc2n(C2CCCC2)c1=O,> 20,> 20,> 20,> 20,–,–,–,–
CC(=O)c1c(C)c2cnc(Nc3ccc(N4CCN(CC#N)CC4)cn3)nc2n(C2CCCC2)c1=O,> 20,17.9,> 20,> 20,–,–,–,–
CC(=O)c1c(C)c2cnc(Nc3ccc(N4CCN(CCC(=O)NCCOCCOCCNC(=O)CCl)CC4)cn3)nc2n(C2CCCC2)c1=O,> 20,8.92,9.2,15.8,–,–,–,–
C=CC(=O)NCCOCCOCCNC(=O)CCN1CCN(c2ccc(Nc3ncc4c(C)c(C(C)=O)c(=O)n(C5CCCC5)c4n3)nc2)CC1,> 20,> 20,8.19,> 20,–,–,–,–
C=CC(=O)NCCOCCNC(=O)CCN1CCN(c2ccc(Nc3ncc4c(C)c(C(C)=O)c(=O)n(C5CCCC5)c4n3)nc2)CC1,> 20,> 20,5.25,> 20,–,–,–,–
CC(=O)c1c(C)c2cnc(Nc3ccc(N4CCN(CCC(=O)NCCOCCOCCNCC#N)CC4)cn3)nc2n(C2CCCC2)c1=O,> 20,> 20,> 20,> 20,–,–,–,–
CC(=O)c1c(C)c2cnc(Nc3ccc(N4CCN(CC(=O)NCCOCCOCCNC(=O)CCl)CC4)cn3)nc2n(C2CCCC2)c1=O,> 20,> 20,> 20,> 20,–,–,–,–
CC(=O)c1c(C)c2cnc(Nc3ccc(N4CCN(CCC(=O)NCCCNCC#N)CC4)cn3)nc2n(C2CCCC2)c1=O,> 20,> 20,> 20,> 20,–,–,–,–

# Now from value to compound:
IC50 [1] [µM],IC50 [2] [µM],IC50 [3] [µM],IC50 [4] [µM],inhibition [5] [%],inhibition [6] [%],inhibition [7] [%],inhibition [8] [%],SMILES
> 20,18.3,> 20,> 20,–,–,–,–,C=CC(=O)NCCCNC(=O)CCN1CCN(c2ccc(Nc3ncc4c(C)c(C(C)=O)c(=O)n(C5CCCC5)c4n3)nc2)CC1
> 20,> 20,> 20,> 20,–,–,–,–,C=CC(=O)NCCNC(=O)CCN1CCN(c2ccc(Nc3ncc4c(C)c(C(C)=O)c(=O)n(C5CCCC5)c4n3)nc2)CC1
> 20,> 20,> 20,> 20,–,–,–,–,C=CC(=O)NCCCCNC(=O)CCN1CCN(c2ccc(Nc3ncc4c(C)c(C(C)=O)c(=O)n(C5CCCC5)c4n3)nc2)CC1
> 20,8.32,8.93,12.4,94.8,63,104,82.9,CC(=O)c1c(C)c2cnc(Nc3ccc(N4CCN(CC(=O)NCCCCNC(=O)CCl)CC4)cn3)nc2n(C2CCCC2)c1=O
> 20,14.8,> 20,> 20,–,–,–,–,C=CC(=O)NCCCCCCNC(=O)CN1CCN(c2ccc(Nc3ncc4c(C)c(C(C)=O)c(=O)n(C5CCCC5)c4n3)nc2)CC1
> 20,> 20,10.2,> 20,–,–,–,–,C=CC(=O)NCCOCCOCCNC(=O)CN1CCN(c2ccc(Nc3ncc4c(C)c(C(C)=O)c(=O)n(C5CCCC5)c4n3)nc2)CC1
> 20,> 20,> 20,> 20,–,–,–,–,CC(=O)c1c(C)c2cnc(Nc3ccc(N4CCN(CC(=O)NCCCCNCC#N)CC4)cn3)nc2n(C2CCCC2)c1=O
> 20,18,> 20,> 20,–,–,–,–,C=CC(=O)NCCCNC(=O)CN1CCN(c2ccc(Nc3ncc4c(C)c(C(C)=O)c(=O)n(C5CCCC5)c4n3)nc2)CC1
8.88,9.89,5.11,14.5,90.9,45.7,98.2,71.3,CC(=O)c1c(C)c2cnc(Nc3ccc(N4CCN(CC(=O)NCCCCCCNC(=O)CCl)CC4)cn3)nc2n(C2CCCC2)c1=O
> 20,> 20,> 20,> 20,–,–,–,–,C=CC(=O)NCCCCCCNC(=O)CCN1CCN(c2ccc(Nc3ncc4c(C)c(C(C)=O)c(=O)n(C5CCCC5)c4n3)nc2)CC1
> 20,> 20,15.4,> 20,–,–,–,–,C=CC(=O)NCCOCCNC(=O)CN1CCN(c2ccc(Nc3ncc4c(C)c(C(C)=O)c(=O)n(C5CCCC5)c4n3)nc2)CC1
7.41,7.8,1.92,5.22,91.7,56.9,101,92.1,CC(=O)c1c(C)c2cnc(Nc3ccc(N4CCN(CC(=O)NCCCNC(=O)CCl)CC4)cn3)nc2n(C2CCCC2)c1=O
> 20,18.7,> 20,> 20,–,–,–,–,C=CC(=O)NCCNC(=O)CN1CCN(c2ccc(Nc3ncc4c(C)c(C(C)=O)c(=O)n(C5CCCC5)c4n3)nc2)CC1
> 20,> 20,> 20,> 20,–,–,–,–,C=CC(=O)NCCCCNC(=O)CN1CCN(c2ccc(Nc3ncc4c(C)c(C(C)=O)c(=O)n(C5CCCC5)c4n3)nc2)CC1
